Experimental findings from patent publication US8163767B2, “Heterocyclic Janus Kinase 3 inhibitors” (Astellas Pharma Inc., priority 2005, dated 2012) are described below.

Where a name gives a salt, the structure may show the parent alone.

In the first test the target is T1, human JAK3 (Homo sapiens, UniProt P52333).
T1 construct: His (N); purchased Carna Bioscience Inc. (Kobe, Japan); host or cells: baculovirus expression system
T1 sequence (P52333 796-1124): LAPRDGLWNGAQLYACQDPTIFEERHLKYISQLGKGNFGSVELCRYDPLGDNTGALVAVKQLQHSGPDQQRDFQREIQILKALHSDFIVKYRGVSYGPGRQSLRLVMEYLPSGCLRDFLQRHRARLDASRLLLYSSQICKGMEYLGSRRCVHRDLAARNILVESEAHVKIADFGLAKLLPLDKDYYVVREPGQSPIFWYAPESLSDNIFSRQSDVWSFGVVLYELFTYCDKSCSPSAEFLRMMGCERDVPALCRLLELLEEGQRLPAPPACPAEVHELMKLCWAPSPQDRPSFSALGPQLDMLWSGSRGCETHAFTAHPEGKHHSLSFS
In words: Determination of Janus Kinase 3 (JAK3) inhibitory activity. The format is biochemical. The note with it: JAK3 inhibitory activity. The method, then:
Test 1: Determination of Janus Kinase 3 (JAK3) Inhibitory Activity
The assay for JAK3 activity was performed basically according to the method as proposed by Okimoto et al, as follows.
Purified kinase domain (KD) of human JAK3 was purchased from Carna Bioscience Inc. (Kobe, Japan). 796-1124 (end) amino acids of human JAK3 [accession number #NM_000215] was expressed as N-terminal His-tagged protein (41 kDa) using the baculovirus expression system and purified by using Ni-NTA affinity chromatography.
Biotin-Lyn-Substrate-peptide and ATP were used as substrates. Assay buffer consisted of 15 mM Tris-HCl pH7.5, 0.01% Tween 20 and 2 mM DTT. For the standard assay, 20 μL of substrate solution (Assay buffer containing 627 nM Biotin-Lyn-Substrate-2, 20 μM ATP and 25 mM MgCl2), 10 μL of assay buffer containing test compound and 20 μL of enzyme solution were added to the plate and mixed well.
After 1 hour incubation at ambient temperature, the plate was washed 4 times with wash buffer (50 mM Tris-HCl pH 7.5, 150 mM NaCl, 0.02% Tween 20), and then blocking buffer (wash buffer containing 0.1% Bovine serum albumin) was added to the plate. After 30 minutes incubation at ambient temperature, blocking buffer was removed and HRP-PY-20 solution (HRP-PY-20 500 times diluted with blocking buffer) was added. After 30 minutes incubation at ambient temperature, the plate was washed 4 times and TMB substrate solution (Sigma) was added to the plate. After 4 minutes incubation at ambient temperature, 1 M H2SO4 was added to the plate to stop the reaction. Enzyme activity was measured as optical density at 450 nm.
In general, IC50 refers to the concentration that inhibits the measured activity by half. On to `C[C@@H]1CCCC[C@@H]1Nc1c(C(N)=O)cnc2[nH]ccc12` [Example 106, 4-{[(1S,2R)-2-Methylcyclohexyl]amino}-1H-pyrrolo[2,3-b]-pyridine-5-carboxamide], for which the IC50 was 3 nM.

Take `C[C@@H]1CCCC[C@@H]1n1c(=O)[nH]c2cnc3[nH]ccc3c21` [Example 112, 1-[(1S,2R)-2-methylcyclohexyl]-3,6-dihydroimidazo[4,5-d]pyrrolo[2,3-b]pyridin-2(1H)-one]: 3 nM corresponded to half-maximal inhibition (IC50).

For `CC[C@@H]1CCCC[C@@H]1n1c(=O)[nH]c2cnc3[nH]ccc3c21` [Example 118, 1-[(1S,2R)-2-Ethylcyclohexyl]-3,6-dihydroimidazo[4,5-d]pyrrolo-[2,3-b]pyridin-2(1H)-one hydrochloride], the midpoint of inhibition, the IC50, lay at 5.1 nM.

The test is the same for the next values; noted with them: read-out: IR (JAK3 inhibition rate).
A word on the inhibition: it is how much of the control response was suppressed. For `CC[C@@H]1CCCC[C@@H]1n1c(=O)[nH]c2cnc3[nH]ccc3c21` [Example 118, 1-[(1S,2R)-2-Ethylcyclohexyl]-3,6-dihydroimidazo[4,5-d]pyrrolo-[2,3-b]pyridin-2(1H)-one hydrochloride], the inhibition at 0.01 µM is over 50%.

Still in this test, the particulars now being: test compound 10^−5M; read-out: IR (JAK3 inhibition rate).
For the molecule `CCOC(=O)c1cnc2[nH]ccc2c1N(C)[C@H]1CCCC[C@H]1C` [Example 1, ethyl 4-{methyl[(1S,2R)-2-methylcyclohexyl]amino}-1H-pyrrolo[2,3-b]pyridine-5-carboxylate], the inhibition at 10 µM is over 50%.

Regarding `CN(c1c(C(N)=O)cnc2[nH]ccc12)C1CCCCC1` [Example 4, 4-[Cyclohexyl(methyl)amino]-1H-pyrrolo[2,3-b]pyridine-5-carboxamide], the inhibition at 10 µM was over 50%.

Take `C[C@@H]1CCCC[C@@H]1N(C)c1c(C#N)cnc2[nH]ccc12` [Example 5, 4-{Methyl[(1S,2R)-2-methylcyclohexyl]amino}-1H-pyrrolo[2,3-b]-pyridine-5-carbonitrile]: the inhibition at 10 µM is over 50%.

As for `NC(=O)c1cnc2[nH]ccc2c1NC1CCCC1` [Example 6, 4-(Cyclopentylamino)-1H-pyrrolo[2,3-b]pyridine-5-carboxamide], the inhibition at 10 µM was over 50%.

For the molecule `C[C@@H]1CCCC[C@@H]1Nc1c(C#N)cnc2[nH]ccc12` [Example 15, 4-{[(1S,2R)-2-Methylcyclohexyl]amino}-1H-pyrrolo[2,3-b]-pyridine-5-carbonitrile], the inhibition at 10 µM was over 50%.

Regarding `O=C(O)c1cnc2[nH]ccc2c1NC1CCCCC1` [Example 96, 4-(cyclohexylamino)-1H-pyrrolo[2,3-b]pyridine-5-carboxylic acid], the inhibition at 10 µM was over 50%.

For `NC(=O)c1cnc2[nH]ccc2c1N[C@@H]1CCCC[C@@H]1CO` [Example 109, 4-{[(1R,2S)-2-(Hydroxymethyl)cyclohexyl]amino}-1H-pyrrolo-[2,3-b]pyridine-5-carboxamide], the inhibition at 10 µM is over 50%.

Consider `C[C@@H]1CCCC[C@@H]1N(C)c1ccnc2[nH]cnc12` [Example 156, N-Methyl-N-[(1S,2R)-2-methylcyclohexyl]-3H-imidazo[4,5-b]-pyridin-7-amine], for which the inhibition at 10 µM was over 50%.

For the molecule `CNC(=O)c1cnc2[nH]ccc2c1NC1CCCCC1` [Example 187, 4-(cyclohexylamino)-N-methyl-1H-pyrrolo[2,3-b]pyridine-5-carboxamide], the inhibition at 10 µM was over 50%.

On to `O=C(Nc1ccccc1)c1cnc2[nH]ccc2c1NC1CCCCC1` [Example 192, 4-(Cyclohexylamino)-N-phenyl-1H-pyrrolo[2,3-b]pyridine-5-carboxamide], for which the inhibition at 10 µM was over 50%.

In the case of `CN(c1ccnc2nc[nH]c12)C1CCCCC1` [Example 209, N-cyclohexyl-N-methyl-1H-imidazo[4,5-b]pyridin-7-amine], the inhibition at 10 µM is over 50%.

As to `CN(c1ccnc2[nH]cc([N+](=O)[O-])c12)C1CCCCC1` [Example 210, N-cyclohexyl-N-methyl-3-nitro-1H-pyrrolo[2,3-b]pyridin-4-amine], the inhibition at 10 µM is over 50%.

Take `CN(c1ccnc2[nH]ccc12)C1CCCCC1` [Example 211, N-cyclohexyl-N-methyl-1H-pyrrolo[2,3-b]pyridin-4-amine]: the inhibition at 10 µM was over 50%.

Turning to `CN(c1ccnc2[nH]cc(C#N)c12)C1CCCCC1` [Example 212, 4-[cyclohexyl(methyl)amino]-1H-pyrrolo[2,3-b]pyridine-3-carbonitrile], the inhibition at 10 µM was over 50%.

Take `CN(c1c(F)cnc2[nH]ccc12)C1CCCCC1` [Example 214, N-cyclohexyl-5-fluoro-N-methyl-1H-pyrrolo[2,3-b]pyridin-4-amine]: the inhibition at 10 µM was over 50%.

`Fc1cnc2[nH]ccc2c1NC1CCCCC1` [Example 222, N-cyclohexyl-5-fluoro-1H-pyrrolo[2,3-b]pyridin-4-amine]: the inhibition at 10 µM is over 50%.

Regarding `Fc1cnc2[nH]ccc2c1N1CCCCC1` [Example 223, 5-fluoro-4-(1-piperidinyl)-1H-pyrrolo[2,3-b]pyridine], the inhibition at 10 µM was over 50%.

`C[C@@H]1CCCC[C@@H]1Nc1c(F)cnc2[nH]ccc12` [Example 225, 5-fluoro-N-[(1S,2R)-2-methylcyclohexyl]-1H-pyrrolo[2,3-b]pyridin-4-amine]: the inhibition at 10 µM was over 50%.

Still in this test, the particulars now being: test compound 10^−8M; read-out: IR (JAK3 inhibition rate).
In the case of `C[C@@H]1CCN(C(=O)c2ccc(Cl)s2)C[C@@H]1n1c(=O)[nH]c2cnc3[nH]ccc3c21` (relative stereo) [Example 170, rel-1-{(3R,4R)-1-[(5-Chloro-2-thienyl)carbonyl]-4-methyl-3-piperidinyl}-3,6-dihydroimidazo[4,5-d]pyrrolo[2,3-b]pyridin-2(1H)-one], the inhibition at 0.01 µM is over 50%.

`C[C@@H]1CCN(C(=O)CC#N)C[C@@H]1n1c(=O)[nH]c2cnc3[nH]ccc3c21` (relative stereo) [Example 189, rel-3-[(3R,4R)-4-Methyl-3-(2-oxo-3,6-dihydroimidazo[4,5-d]pyrrolo-[2,3-b]pyridin-1(2H)-yl)-1-piperidinyl]-3-oxopropanenitrile]: the inhibition at 0.01 µM is over 50%.

As for `C[C@@H]1CCN(C(=O)N2CCC(F)(F)C2)C[C@@H]1n1c(=O)[nH]c2cnc3[nH]ccc3c21` (relative stereo) [Example 274, rel-1-{(3R,4R)-1-[(3,3-difluoropyrrolidin-1-yl)carbonyl]-4-methylpiperidin-3-yl}-3,6-dihydroimidazo[4,5-d]pyrrolo[2,3-b]pyridin-2(1H)-one], the inhibition at 0.01 µM is over 50%.

In the case of `C[C@@H]1CCN(c2ccc(C#N)cn2)C[C@@H]1n1c(=O)[nH]c2cnc3[nH]ccc3c21` (relative stereo) [Example 323, rel-6-[(3R,4R)-4-Methyl-3-(2-oxo-3,6-dihydroimidazo[4,5-d]-pyrrolo[2,3-b]pyridin-1(2H)-yl)piperidin-1-yl]nicotinonitrile], the inhibition at 0.01 µM was over 50%.

Turning to `N#Cc1ccc(N2CCC(Nc3c(C(N)=O)cnc4[nH]ccc34)CC2)nc1` [Example 17, 4-{[1-(5-Cyano-2-pyridinyl)-4-piperidinyl]amino}-1H-pyrrolo-[2,3-b]pyridine-5-carboxamide], the inhibition at 0.01 µM was over 50%.

Take `CC(C)[C@@H](C)Nc1c(C(N)=O)cnc2[nH]ccc12` [Example 18, 4-{[(1R)-1,2-Dimethylpropyl]amino}-1H-pyrrolo[2,3-b]pyridine-5-carboxamide]: the inhibition at 0.01 µM was over 50%.

As to `C[C@@H]1CCCC[C@@H]1Nc1c(C(N)=O)cnc2[nH]ccc12` [Example 106, 4-{[(1S,2R)-2-Methylcyclohexyl]amino}-1H-pyrrolo[2,3-b]-pyridine-5-carboxamide], the inhibition at 0.01 µM is over 50%.

For `C[C@@H]1CCCC[C@@H]1n1c(=O)[nH]c2cnc3[nH]ccc3c21` [Example 112, 1-[(1S,2R)-2-methylcyclohexyl]-3,6-dihydroimidazo[4,5-d]pyrrolo[2,3-b]pyridin-2(1H)-one], the inhibition at 0.01 µM is over 50%.

Regarding `CC1CCN(C(=O)C2(C#N)CC2)CC1n1c(=O)[nH]c2cnc3[nH]ccc3c21` (stereo not drawn) [Example 175, 1-{[4-Methyl-3-(2-oxo-3,6-dihydroimidazo[4,5-d]pyrrolo[2,3-b]-pyridin-1(2H)-yl)-1-piperidinyl]carbonyl}cyclopropane-carbonitrile], the inhibition at 0.01 µM was over 50%.

Regarding `C[C@@H]1CCN(c2ccc(C#N)cn2)C[C@@H]1n1c(=O)[nH]c2cnc3[nH]ccc3c21` [Example 240, 6-[(3R,4R)-4-Methyl-3-(2-oxo-3,6-dihydroimidazo[4,5-d]pyrrolo[2,3-b]pyridin-1(2H)-yl)-1-piperidinyl]nicotinonitrile], the inhibition at 0.01 µM is over 50%.

As for `CC1CCN(c2ncc(C#N)s2)CC1n1c(=O)[nH]c2cnc3[nH]ccc3c21` (stereo not drawn) [Example 242, 2-[4-Methyl-3-(2-oxo-3,6-dihydroimidazo[4,5-d]pyrrolo[2,3-b]-pyridin-1(2H)-yl)-1-piperidinyl]-thiazole-5-carbonitrile], the inhibition at 0.01 µM is over 50%.

Take `CC1CCN(c2ccc(C#N)nn2)CC1n1c(=O)[nH]c2cnc3[nH]ccc3c21` (stereo not drawn) [Example 244, 6-[4-Methyl-3-(2-oxo-3,6-dihydroimidazo[4,5-d]pyrrolo[2,3-b]-pyridin-1(2H)-yl)-1-piperidinyl]-3-pyridazinecarbonitrile]: the inhibition at 0.01 µM was over 50%.

In the case of `CC1CCN(C(=O)N(C)C)CC1n1c(=O)[nH]c2cnc3[nH]ccc3c21` (stereo not drawn) [Example 275, N,N,4-Trimethyl-3-(2-oxo-3,6-dihydroimidazo[4,5-d]pyrrolo-[2,3-b]pyridin-1(2H)-yl)-1-piperidine carboxamide], the inhibition at 0.01 µM was over 50%.

Regarding `CC1CCN(C(=O)N2CC(C#N)C2)CC1n1c(=O)[nH]c2cnc3[nH]ccc3c21` (stereo not drawn) [Example 280, 1-{[4-Methyl-3-(2-oxo-3,6-dihydroimidazo[4,5-d]pyrrolo[2,3-b]-pyridin-1(2H)-yl)-1-piperidinyl]carbonyl}-3-azetidinecarbonitrile], the inhibition at 0.01 µM was over 50%.
